The results in this text go back to US20260297081A1, “COMPOUNDS AND METHODS OF TREATING CANCERS” (Cullgen Inc., priority 2023, published 2026).

Holding throughout (format): cell-based
The subject of test [1] is MCF7 cells. The test is described as follows: Anti-proliferation (viability) of MCF7 cells (Table 7, FIG. 2B). The following applies: Homo sapiens, MCF7, MCF7 cells, 3-6 days, 10-point serial dilution; read-out: GI IC50 in MCF-7.
Test [2] addresses T1, CDK4 (Homo sapiens, UniProt P11802+Q16531). The test is described as follows: HiBiT detection of HiBiT-tagged CDK4 protein level in MCF7 cells, 16 hours (Table 8). Also on record: expressed in transfected cells; host or cells: MCF7. The settings on record: MCF7 cells stably expressing HiBiT tagged target proteins; for activity at 0.01 µM: 10 nM, read-out: % CDK4 Relative Level (10 nM); for activity at 0.1 µM: 100 nM, read-out: % CDK4 Relative Level (100 nM). The protocol: HiBiT detection system quantitatively measures total amounts of HiBiT-tagged proteins using a luminescent based method. MCF7 cells stably expressing HiBiT tagged target proteins were treated with heterobifunctional compounds at indicated concentrations for 16 hours, then lysed with Nano-Glo HiBiT Lytic detection reagents.
Target sequence in this assay (P11802 whole entry): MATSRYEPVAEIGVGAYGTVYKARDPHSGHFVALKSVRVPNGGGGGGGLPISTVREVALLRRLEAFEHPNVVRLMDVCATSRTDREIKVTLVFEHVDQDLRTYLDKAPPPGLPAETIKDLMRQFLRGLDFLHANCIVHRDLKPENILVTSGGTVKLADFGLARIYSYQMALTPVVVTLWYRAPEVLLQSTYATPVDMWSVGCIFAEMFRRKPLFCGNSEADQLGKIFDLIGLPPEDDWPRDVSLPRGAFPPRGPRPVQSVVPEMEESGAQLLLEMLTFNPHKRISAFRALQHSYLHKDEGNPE
Target sequence in this assay (P24385 whole entry partner): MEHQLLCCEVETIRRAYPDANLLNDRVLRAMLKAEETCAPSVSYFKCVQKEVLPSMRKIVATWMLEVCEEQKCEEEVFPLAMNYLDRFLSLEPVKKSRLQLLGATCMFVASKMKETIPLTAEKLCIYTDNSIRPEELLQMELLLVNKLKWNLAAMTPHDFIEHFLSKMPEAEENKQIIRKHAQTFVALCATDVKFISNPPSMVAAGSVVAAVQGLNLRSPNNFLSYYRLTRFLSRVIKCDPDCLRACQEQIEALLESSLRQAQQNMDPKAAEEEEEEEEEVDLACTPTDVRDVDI
Target sequence in this assay (Q16531 2-1140 limits assumed): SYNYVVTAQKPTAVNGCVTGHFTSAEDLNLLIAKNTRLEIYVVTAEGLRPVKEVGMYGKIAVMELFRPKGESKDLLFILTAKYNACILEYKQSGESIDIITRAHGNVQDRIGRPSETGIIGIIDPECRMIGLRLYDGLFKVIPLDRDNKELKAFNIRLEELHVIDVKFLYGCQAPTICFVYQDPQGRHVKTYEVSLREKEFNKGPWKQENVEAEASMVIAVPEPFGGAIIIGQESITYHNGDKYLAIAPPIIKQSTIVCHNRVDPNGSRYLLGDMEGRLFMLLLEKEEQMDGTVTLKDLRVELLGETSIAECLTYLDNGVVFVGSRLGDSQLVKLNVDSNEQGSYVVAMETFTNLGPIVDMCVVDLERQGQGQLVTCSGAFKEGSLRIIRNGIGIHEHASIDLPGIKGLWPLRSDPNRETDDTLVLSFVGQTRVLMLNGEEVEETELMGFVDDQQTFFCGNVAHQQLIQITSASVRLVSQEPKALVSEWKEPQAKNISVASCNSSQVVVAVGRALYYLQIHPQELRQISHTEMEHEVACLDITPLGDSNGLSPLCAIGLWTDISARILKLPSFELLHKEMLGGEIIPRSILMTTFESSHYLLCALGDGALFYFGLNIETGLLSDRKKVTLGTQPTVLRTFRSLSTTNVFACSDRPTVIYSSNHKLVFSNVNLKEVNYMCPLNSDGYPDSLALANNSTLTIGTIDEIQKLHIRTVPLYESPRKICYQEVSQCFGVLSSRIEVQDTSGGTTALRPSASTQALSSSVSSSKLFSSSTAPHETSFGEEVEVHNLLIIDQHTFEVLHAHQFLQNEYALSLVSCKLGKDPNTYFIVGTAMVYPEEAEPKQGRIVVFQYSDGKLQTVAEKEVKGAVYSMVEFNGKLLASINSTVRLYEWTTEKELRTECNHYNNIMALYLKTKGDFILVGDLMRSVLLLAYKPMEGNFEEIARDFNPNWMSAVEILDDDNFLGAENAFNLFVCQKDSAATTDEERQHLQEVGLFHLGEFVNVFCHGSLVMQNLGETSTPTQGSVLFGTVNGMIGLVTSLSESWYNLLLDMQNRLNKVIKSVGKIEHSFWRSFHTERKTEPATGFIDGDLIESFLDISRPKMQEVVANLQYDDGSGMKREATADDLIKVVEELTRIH

Test [3] has as its target T1, CDK4. In words: CDK4 percentage degradation in Calu-1 cells (Table 6). The following applies: 16 hours. Also on record: Cells that express cyclin D1-3 and CDK4/6 proteins were treated with heterobifunctional compounds; endogenous in cells; host or cells: Calu-1. Put shortly: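 Calu-1 cells exposed to heterobifunctional compounds at 40 nM or 200 nM for 16 h. Cyclin D1 and CDK4 levels measured by Western blot of RIPA lysates (BCA-normalised loading), bands quantified by densitometry and expressed as percentage degradation.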
Target sequence in this assay (P11802 2-303 limits assumed): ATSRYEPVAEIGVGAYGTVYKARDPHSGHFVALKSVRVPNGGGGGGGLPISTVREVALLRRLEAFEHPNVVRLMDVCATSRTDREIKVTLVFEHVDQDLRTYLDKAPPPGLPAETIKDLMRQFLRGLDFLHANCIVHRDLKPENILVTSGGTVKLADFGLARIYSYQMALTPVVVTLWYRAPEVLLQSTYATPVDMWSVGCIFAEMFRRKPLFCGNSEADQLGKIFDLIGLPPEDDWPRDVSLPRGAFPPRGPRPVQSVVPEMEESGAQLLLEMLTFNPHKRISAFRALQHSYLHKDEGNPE
Target sequence in this assay (P24385 whole entry partner): as the sequence (P24385 whole entry partner) above
Target sequence in this assay (Q16531 2-1140 limits assumed): as the sequence (Q16531 2-1140 limits assumed) above

Take `CC(=O)c1c(C)c2cnc(Nc3ccc(N4CCN(CCC(=O)N5CCC(Nc6nc(NC(C)C)ccc6C(=O)Nc6ccc(N(C)C)nn6)CC5)CC4)cn3)nc2n(C2CCCC2)c1=O` [CPD-301, 2-((1-(3-(4-(6-((6-acetyl-8-cyclopentyl-5-methyl-7-oxo-7,8-dihydropyrido[2,3-d]pyrimidin-2-yl)amino)pyridin-3-yl)piperazin-1-yl)propanoyl)piperidin-4-yl)amino)-N-(6-(dimethylamino)pyridazin-3-yl)-6-(isopropylamino)nicotinamide]: the IC50 in test [1] is below 0.05 µM. In test [2], the activity at 0.01 µM fell in the range of 55 to 85% and the activity at 0.1 µM is 55 to 85%. This molecule gave an inhibition at 0.04 µM in test [3] (40 nM) below 30%. Further, in test [3] (200 nM), the inhibition at 0.2 µM is below 30%.

Consider `CNc1ccc(C(=O)Nc2ccc(N(C)C)nn2)c(NCCCCNC(=O)CN2CCN(c3ccc(Nc4ncc5cc6n(c5n4)C4(CCCCC4)CNC6=O)nc3)CC2)n1` [CPD-642, N-(6-(dimethylamino)pyridazin-3-yl)-6-(methylamino)-2-((4-(2-(4-(6-((6′-oxo-7′,8′-dihydro-6′H-spiro[cyclohexane-1,9′-pyrazino[1′,2′:1,5]pyrrolo[2,3-d]pyrimidin]-2′-yl)amino)pyridin-3-yl)piperazin-1-yl)acetamido)butyl)amino)nicotinamide], for which the IC50 in test [1] is above 0.1 µM. Further, in test [2], the activity at 0.01 µM was in the range of 55 to 85% and the activity at 0.1 µM fell in the range of 55 to 85%.

`CNc1ccc(C(=O)Nc2ccc(N(C)C)nn2)c(NCCCCCNC(=O)CN2CCN(c3ccc(Nc4ncc5cc6n(c5n4)C4(CCCCC4)CNC6=O)nc3)CC2)n1` [CPD-643]: the concentration for half-maximal inhibition (IC50) in test [1] was above 0.1 µM. In test [2], the activity at 0.01 µM is above 85% and the activity at 0.1 µM is 55 to 85%.

For `CNc1ccc(C(=O)Nc2ccc(N(C)C)nn2)c(NCCCCCCNC(=O)CN2CCN(c3ccc(Nc4ncc5cc6n(c5n4)C4(CCCCC4)CNC6=O)nc3)CC2)n1` [CPD-644, N-(6-(dimethylamino)pyridazin-3-yl)-6-(methylamino)-2-((6-(2-(4-(6-((6′-oxo-7′,8′-dihydro-6′H-spiro[cyclohexane-1,9′-pyrazino[1′,2′:1,5]pyrrolo[2,3-d]pyrimidin]-2′-yl)amino)pyridin-3-yl)piperazin-1-yl)acetamido)hexyl)amino)nicotinamide], in test [1], the IC50 is above 0.1 µM. In test [2], the activity at 0.01 µM is above 85% and the activity at 0.1 µM was above 85%.

Consider `CNc1ccc(C(=O)Nc2ccc(N(C)C)nn2)c(NCCCCCCCNC(=O)CN2CCN(c3ccc(Nc4ncc5cc6n(c5n4)C4(CCCCC4)CNC6=O)nc3)CC2)n1` [CPD-645, N-(6-(dimethylamino)pyridazin-3-yl)-6-(methylamino)-2-((7-(2-(4-(6-((6′-oxo-7′,8′-dihydro-6′H-spiro[cyclohexane-1,9′-pyrazino[1′,2′:1,5]pyrrolo[2,3-d]pyrimidin]-2′-yl)amino)pyridin-3-yl)piperazin-1-yl)acetamido)heptyl)amino)nicotinamide], for which the IC50 in test [1] was above 0.1 µM. In addition, in test [2], the activity at 0.01 µM was above 85% and the activity at 0.1 µM is above 85%.

Take `CNc1ccc(C(=O)Nc2ccc(N(C)C)nn2)c(NCCCCCCCCNC(=O)CN2CCN(c3ccc(Nc4ncc5cc6n(c5n4)C4(CCCCC4)CNC6=O)nc3)CC2)n1` [CPD-646, N-(6-(dimethylamino)pyridazin-3-yl)-6-(methylamino)-2-((8-(2-(4-(6-((6′-oxo-7′,8′-dihydro-6′H-spiro[cyclohexane-1,9′-pyrazino[1′,2′:1,5]pyrrolo[2,3-d]pyrimidin]-2′-yl)amino)pyridin-3-yl)piperazin-1-yl)acetamido)octyl)amino)nicotinamide]: the IC50 in test [1] is above 0.1 µM. In test [2], the activity at 0.01 µM was above 85% and the activity at 0.1 µM is above 85%.
